In US10653691B2, “Method of promoting remyelination” (Case Western Reserve University, priority 2013, dated 2020):

Assays:
[1] = mice, intraperitoneal
Procedure: After 1 or 6 h, […] of plasma was collected then each animal was perfused with PBS. Brains were collected, weighed, and rinsed with PBS. Water (0.5 ml) was added to the brain samples, which were then homogenized. Plasma and brain samples were each diluted fivefold with blank rat plasma. Three hundred microlitres of internal standard solution was added to the samples, vortexed, and centrifuged. Five microlitres of each sample was injected into an API-4000Qtrap mass spectrometer and quantified (Climax Labs).

glucocorticoid receptor = assay: Western blot of glucocorticoid receptor phosphorylation at Ser220 in OPCs; format: cell-based, mouse; conditions: OPCs treated for 1 h
Procedure: EpiSC-derived OPCs were seeded into poly-Lornithine/laminin coated six-well plates and allowed to attach for 2 h in DMEM/F12 without additional factors. Cells were treated with indicated inhibitors or DMSO for 1 h-SCH772984 (ChemieTek, 1 mM), SB590885 (Tocris, 10 nM), LY294002 (Tocris, 10 μM), and PD0325901 (Stemgent, 1 μM). Cells were then stimulated with drug or FGF2 (R&DSystems; 20 ng ml^−1) for 1 h and then lysed in 200 μL RIPA buffer (0.15 M NaCl, 0.05M Tris, pH=8.0, 1 mM EDTA, 1% Triton X-100, 0.1% SDS, 10% glycerol, HALT protease and phosphatase inhibitor (Thermo Fisher) added just before use) and incubated on ice for 20 min. Lysates were centrifuged at 4° C. and supernatant collected. Protein concentrations were determined by Pierce BCA protein assay kit (Thermo Fisher). […] Blots were blocked in either 5% BSA (phosphoprotein) or 5% milk (non phosphoprotein).

naive CD4+ T cells = assay: Naive CD4+ T-cell assays; format: cell-based, mouse; conditions: Th1 or Th17 driving conditions, 4 days
Procedure: Naive CD4+ T cells (CD4+L-selectin^hi cells) were purified using AutoMacs Magnetic Bead cell separation technology (Miltenyi Biotech) from total lymph node cells isolated from unprimed mice with purity ranging from 98 to 99.9%. For in vitro activation, 5×10^5 naive CD4^+ T cells were activated in the presence of plate-bound anti CD3 (1 μgml^−1) plus Th1—(200 U ml^−1 interleukin-2 (IL-2), 40 U ml^−1 IL-12, 10 μgml^−1 anti-IL-4) or Th17—([…], 50 ng ml^−1 IL-6, 1 μgml^−1 anti-IFN-γ, 1 μgml^−1 anti-IL-4, 1 μgml^−1 anti-IL-2) promoting conditions. On day 4, the cultured T cells were collected and the percentage of viable cytokine positive cells assessed by flow cytometry. The cells were stained with a LIVE/DEAD Fixable Violet Dead Cell Stain Kit, for 405 nm excitation (Life Technologies), anti CD4-APC/Cy7 (clone RM4-5), anti-IFN-γ-PerCP/Cy5.5 (clone XMG1.2), and anti-IL-17-APC (clone eBio17B7) (eBioscience). Viable cells (5×10^5) were analysed per individual sample using a BD Canto II cytometer (BD Biosciences), and the data were analysed using FloJo version 9.5.2 software (Tree Star).

MOG35-55 EAE mouse model = assay: External validation of MOG35-55 EAE at an independent contract laboratory; format: in vivo; conditions: 10 mg/kg, n=12 mice per group
Procedure: EAE was induced by immunizing 10-week-old C57BL/6 female mice with […] injection of […] complete Freund's adjuvant emulsion (Hooke Laboratories). One hour after immunization, mice were given 100 ng of pertussis toxin by 100 μl intraperitoneal injection. A second dose of pertussis toxin was administered the next day. EAE onset was monitored daily and scored using a clinical scale where 0 represented no abnormality; 1, limp tail; 2, limp tail and hind limb weakness; 3, hind limb paralysis; 4, hind limb paralysis and forelimb weakness; and 5, moribund. […] Once mice reached peak of disease ˜day 15; clinical score=3) they were randomized into treatment groups, and drug or vehicle (DMSO in saline) was administered intraperitoneally daily for 10 days (n=12-16 mice per group). […] Experimenters were blinded to the identity of the treatments and animals were scored daily. Cumulative disease scores for each animal were calculated during the treatment period, and a two-tailed t-test compared drug—with vehicle-treated groups. The extent of recovery for each animal was calculated as the difference between the peak disease score and the score at the end of each experiment, and a two-tailed t-test was used to compare each treatment with vehicle. […]

EpiSC-derived OPCs = assay: Dose-response testing of drug hits (percent PLP1+ oligodendrocytes, cytotoxicity); format: cell-based, mouse; conditions: seven point dose response; seen only at the highest 6.7 μM dose
Source text: Dose-response testing of drug hits followed the same procedure with the following modifications to eliminate any artefacts in the primary screen: independently sourced drugs; a distinct batch of EpiSC-derived OPCs from a mouse of opposite sex; multi-dose testing; cytotoxicity analysis; an alternative marker of mature oligodendrocytes proteolipid protein 1 (PLP1, antibody clone AA3 provided by B. Trapp; 1:5,000); and an alternative high content assay endpoint parameter (percentage of oligodendrocytes differentiated instead of process intensity and length parameters). […]
For the 5 μM in vitro screen, stained plates were imaged on the Opera confocal imaging system (PerkinElmer) and a set of 24×10 fields were collected from each well, resulting in an average of 10,000 cells being scored per well. For the dose-response (6.7 μM, 5 μM, 3.3 μM, 1.7 μM, 666 nM, 500 nM, and 333 nM) in vitro assays, plates were imaged on the Operetta High Content Imaging and Analysis system (PerkinElmer) and a set of 14×20 fields captured from each well resulting in an average of 3,300 cells being scored per well. […] Each traced nucleus region was then expanded by 50% and cross-referenced with the mature myelin protein (MBP or PLP1) stain to identify oligodendrocyte nuclei, and from this the percentage of oligodendrocytes was calculated. […]

| Structure (SMILES) | crossing of the blood-brain barrier [1] | phosphorylation of glucocorticoid receptor at Ser220 (glucocorticoid receptor) | naive T-cell differentiation (naive CD4+ T cells) | efficacy to reduce disease severity, independent validation (MOG35-55 EAE mouse model) | toxicity and decrease in PLP1 positive cells in dose response (EpiSC-derived OPCs) |
| --- | --- | --- | --- | --- | --- |
| C[C@H]1C[C@H]2[C@@H]3CCC4=CC(=O)C=C[C@]4(C)[C@@]3(F)[C@@H](O)C[C@]2(C)[C@@]1(O)C(=O)CCl [clobetasol] | readily crossed the blood-brain barrier | increased the phosphorylation of glucocorticoid receptor at Ser220 | altered naïve T-cell differentiation | – | – |
| Clc1ccc(COC(Cn2ccnc2)c2ccc(Cl)cc2Cl)c(Cl)c1 (centres unmarked) [miconazole] | – | – | – | independently validated the preclinical efficacy | Slight toxicity and a decrease in PLP1 positive cells |
